Experimental findings from article PMC12734371, “Synthesis, Anti-Tumour, and Antibacterial Activities of Monocarbonyl Curcumin Analogues of Piperidones” (International Journal of Molecular Sciences, 2025) are described below.

A word on the IC50: it is the concentration needed to halve the response being measured. Low readings indicate greater potency, high ones weaker potency.

Some results are limits rather than exact numbers.

For one experiment, the system named is MCF-7 cells. Kind of experiment: MTT assay, inhibition of tumour cell growth. The following applies: mean ± s, n = 3. In kind it is cell-based, human. On the procedure: (§1) The tumour cell suspension in logarithmic growth phase, containing about 5 × 10^3 cells, was taken and seeded onto a 96-well plate and gently shaken to disperse the cells evenly at the bottom of the plate. The cells were incubated in a constant temperature (37 °C) incubator for 24 h. The old medium was discarded, and 100 μL of the prepared working solution of piperidinone monocarbonyl curcumin analogues at different concentrations was added, and the cells were incubated in a constant temperature incubator for 24 h. Blank medium wells, blank cell wells, and 0.9% DMSO (highest content) wells were set up, with 6 multi-well and 3 multi-plates for each concentration. The discarded old medium was absorbed, and 100 μL of 10% 5 mg/mL MTT working solution was added to each well (operated away from light) and placed in a cell incubator for further incubation for 4 h. The old medium was discarded, and 100 μL of DMSO was added to each well and shaken in an air shaker at 100 RPM for 10 min. The absorbance of the OD value was measured at 490 nm by a multifunctional microplate analyzer. According to Formula (1), the inhibition rates of different piperidones monocarbonyl curcumin analograms on 4 tumour cells were calculated, and IC50 was calculated by GraphPad Prism 8.0:Inhibition rate (%) = (OD blank cell group − OD administration group)/OD blank cell group(1)
In general terms: Tetrazolium dyes change colour on reduction, which living cells bring about.

The next experiment relates to HepG2 cells. As to the kind of experiment: MTT assay, inhibition of tumour cell growth. In kind it is cell-based, human. To be noted: mean ± s, n = 3. On the procedure: as §1
In experiment [1] the test system is A549 cells. As to the kind of experiment: MTT assay, inhibition of tumour cell growth. In kind it is cell-based, human. To be noted: mean ± s, n = 3. As to the method:
as §1

For the next experiment, the system named is Hela cells. Kind of experiment: MTT assay, inhibition of tumour cell growth. In kind it is cell-based, human. The following applies: 24 h, mean ± s, n = 3. On the procedure: as §1
The subject of experiment [2] is A549 cells. Kind of experiment: Flow cytometry apoptosis (Annexin V/PI). In kind it is cell-based, human. To be noted: 24 h. As to the method: The A549 cells in logarithmic growth phase were inoculated in 6-well plates at 1 × 10^6 cells. After resting in the incubator for 24 h, the cells were treated with different concentrations of drugs. The blank control group was added with the medium with the highest concentration of DMSO. After 24 h of culture, cells were collected, washed with PBS, transferred to a flow tube, and resuspended with 100 μL of 1 × Annexin V conjugate. Add 4 μL YF4/88-Annexin N and 5 μL PI working solution. The cells were incubated in the dark at room temperature for 10 min, transferred to a flow cytometer tube, added with 200 μL of 1 × Annexin V conjugate, and immediately detected by flow cytometry.
A general note: Flow cytometry measures light scatter and fluorescence of single cells or particles in a stream.

Another experiment relates to L02 cells. As to the kind of experiment: MTT assay, toxicity to human normal liver cells. The following applies: mean ± s, n = 3. In kind it is cell-based. On the procedure:
The cells were passaged to the fourth generation of L02 cells, and the cell suspension containing about 5 × 10^3 cells was added to each well of the 96-well plate and cultured in a cell culture incubator for 24 h. The old medium was discarded, and different concentrations of liquid medicine (6 porous and 3 plates for each concentration) were added and incubated for 24 h. The old medium was discarded, 10% of 5 mg/mL MTT working solution was added in the dark, and the cells were incubated in a cell incubator for 4 h. The old medium was discarded, 100 μL DMSO was added to each well, and 100 RPM was oscillated on an air shaker for 10 min. The OD value was measured at 490 nm with a multifunctional microplate reader. According to the OD value, the inhibition rate of different piperidone monocarbonyl curcumin analogues on L02 cells was calculated according to Formula (1), and IC50 was calculated by Graph Pad Prism 8.0.

Regarding `O=C1C(=Cc2cc(Br)ccc2Cl)CNCC1=Cc1cc(Br)ccc1Cl` [5Br-2Cl], the IC50 in the experiment with MCF-7 cells (24 h) is above 40 µM; in the experiment on HepG2 cells (24 h), 29.3 ± 2.94 µM; in the experiment with A549 cells [1] (24 h) it was 14.2 ± 3.85 µM; in the experiment with Hela cells, above 40 µM.
Regarding 3,5-Bis(2-bromo-benzyl)-4-piperidone, the half-maximal inhibitory concentration (IC50) in the experiment on MCF-7 cells (24 h) was above 40 µM; in the experiment with HepG2 cells (24 h), 7.03 ± 3.24 µM; in the experiment with A549 cells [1] (24 h), 16.6 ± 1.84 µM; with Hela cells, 12.3 ± 2.67 µM.
“3,5-Bis(3,5-dibromo-benzyl)-4-piperidone [3,5-2Br]”: the concentration for half-maximal inhibition (IC50) was above 40 µM in the experiment on MCF-7 cells (24 h), above 40 µM in the experiment with HepG2 cells (24 h), above 40 µM in the experiment with A549 cells [1] (24 h) and 12.8 ± 3.18 µM with Hela cells.
On to `O=C1C(=Cc2ccc(Cl)cc2Br)CNCC1=Cc1ccc(Cl)cc1Br` [2Br-4Cl], for which the IC50 in the experiment with MCF-7 cells (24 h) is above 40 µM; in the experiment with HepG2 cells (24 h), 27.3 ± 2.64 µM; with A549 cells [1] (24 h), 18.2 ± 3.15 µM; in the experiment with Hela cells, 23.4 ± 3.34 µM.
Regarding `O=C1C(=Cc2ccc(Cl)c(Cl)c2)CNCC1=Cc1ccc(Cl)c(Cl)c1` [3,4-2Cl, 3,5-Bis(3,4-dichlorobenzylidene)-4-piperidone], the IC50 in the experiment on MCF-7 cells (Homo sapiens, MCF7, 24 h) is above 40 µM; in the experiment with HepG2 cells (Homo sapiens, HepG2, 24 h) it was above 40 µM; in the experiment with A549 cells [1] (Homo sapiens, A549, 24 h), 11.9 ± 4.64 µM; in the experiment on Hela cells (Homo sapiens, HeLa), above 40 µM.
`O=C1C(=Cc2ccc(Br)cc2F)CNCC1=Cc1ccc(Br)cc1F` [4Br-2F]: the half-inhibitory concentration (IC50) in the experiment on MCF-7 cells (24 h) is 28.5 ± 2.91 µM; in the experiment with HepG2 cells (24 h) it was 16.4 ± 1.97 µM; in the experiment on A549 cells [1] (24 h), 20.2 ± 4.15 µM; in the experiment with Hela cells, 18.7 ± 3.66 µM.
For `O=C1C(=Cc2ccc(F)cc2Br)CNCC1=Cc1ccc(F)cc1Br` [2Br-4F] the same measures were above 40 µM, 18.3 ± 4.38 µM, 21.8 ± 3.68 µM and above 40 µM.
In the case of `COc1cc(/C=C/C(=O)CC(=O)/C=C/c2ccc(O)c(OC)c2)ccc1O` [Curcumin], the “Proportion of normal cells (flow cytometry)” value in the experiment with A549 cells [2] (20 μmol/L) is given as 84.27%. Moreover, the IC50 stood at 39.2 ± 2.81 µM in the experiment with MCF-7 cells (Homo sapiens, MCF7, 24 h); 17.6 ± 3.43 µM in the experiment with HepG2 cells (Homo sapiens, HepG2, 24 h); 33.5 ± 3.83 µM in the experiment with A549 cells [1] (Homo sapiens, A549, 24 h); 29.2 ± 2.57 µM in the experiment on Hela cells (Homo sapiens, HeLa); 30.4 ± 1.04 µM in the experiment with L02 cells (Homo sapiens, L02, 24 h).
For 3,5-Bis(4-bromo-benzyl)-4-piperidinone, the IC50 with MCF-7 cells (24 h) is 19.7 ± 3.68 µM; in the experiment on HepG2 cells (24 h), 7.15 ± 4.62 µM; with A549 cells [1] (24 h), 15.5 ± 2.35 µM; with Hela cells, above 40 µM.
The like results for `O=C1C(=Cc2cccc(Br)c2)CNCC1=Cc1cccc(Br)c1` [3-Br] were, in that order, 22.5 ± 3.55 µM, 18.3 ± 3.44 µM, above 40 µM and above 40 µM.
With `N.N.[Cl][Pt][Cl]` [Cisplatin solution, reference compound], the “Proportion of normal cells (flow cytometry)” value in the experiment with A549 cells [2] (30 μmol/L) amounted to 86.27%. In addition, the IC50 was 55.2 ± 4.09 µM in the experiment with MCF-7 cells (24 h); 27.7 ± 3.26 µM with HepG2 cells (24 h); 41.2 ± 3.49 µM in the experiment on A549 cells [1] (24 h); 59.4 ± 1.7 µM in the experiment with Hela cells; 48.4 ± 3.83 µM in the experiment on L02 cells (24 h).
